Laboratory results as given in patent publication US20220356169A1, “TETRAZINES FOR HIGH CLICK RELEASE SPEED AND YIELD” (priority 2019, published 2022).
Marks after values point to notes of the source that are not given here.

Experiments:
[1] = Triggered release of Construct-A from TCO trigger, HPLC-MS/PDA
Description: At the specified time point, the sample was analyzed by HPLC-MS/PDA, and the release yield was determined from the observed amounts of IEDDA adducts, elimination product, and/or released Construct. In case the release was not complete, the sample was incubated at 37° C. for additional time and analyzed once again.

ADC AVP0458-TCO-MMAE = test: Triggered drug (MMAE) release from ADC in 50% mouse plasma, HPLC-SIM-MS; settings: for MMAE release from ADC AVP0458-TCO-MMAE, Release (%) / MMAE release level, in words: 50% mouse plasma, 37° C.; for MMAE release level, in words: after 24h incubation
Description: In a 1.5 mL vial, the following was combined: 650 μL mouse plasma, 600 μL PBS, 20 μL ADC (1.62 μg/μL in PBS) and 7.5 μL d8-MMAE solution (0.167 μg/μL, internal standard). Next, aliquots of 20 μL were prepared to which 5.2 μL of a tetrazine solution (0.25 mM in 1:1 DMSO/H2O) was added and the solution was incubated at 37° C. At various times, 100 μL of cold MeCN was added to the aliquot and the mixture was vortexed, stored at 4° C. for 30 min. and centrifuged. 20 μL of supernatant was taken and combined with 100 μL of 1% formic acid (aq) solution. This sample was analysed with HPLC-SIM-MS to quantify the ratio of free MMAE and d8-MMAE, which is a measure of the release yield.

[2] = Cell proliferation assay (MTT); assay type: cell-based; settings: human, 3 days incubation, mean ± SEM (n = 6), read-out: LS174T cell viability (%); for viability at 72 h, 0.01 μM: 0.01 μM activator; for viability at 72 h, 0.1 μM: 0.1 μM activator; for viability at 72 h, 1 μM: 1 μM activator
Description: The human colon carcinoma LS174T cell line was obtained from the American Type Culture Collection and cultured in RPMI-1640 medium supplemented with 2 mM glutamine and 10% heat inactivated fetal calf serum. Twenty-four hours prior to the experiment, the cells were plated in 96-well plates at a 5000 cells/well density. The cells were then incubated with serial dilutions (10 nM-1 μM; n=6) of activators 2.7, 2.8, 2.14, 2.16, 2.17, 2.18 and 2.19 in culture medium for 72h at 37° C. The % cell proliferation was assessed by an MTT assay, in comparison to cells incubated in culture medium without activator. No toxicity was observed when the LS174T cells were incubated with the tested activators (and possible metabolites formed in the presence of serum) for 3-days at a 0.01-1 μM activator concentration.

[3] = Activator stability in PBS at rt (UV decay at 520 nm); assay type: physicochemical; settings: mean ± SD (n = 3)
Description: The assessment of activator stability was performed in PBS at rt. Solutions in DMSO (2.5 mM, 20 μL) were diluted with PBS (3.00 mL), filtered, and incubated at rt. The decrease of the absorption band at 520 nm was monitored using UV spectroscopy.

[4] = Second-order rate constant of the IEDDA reaction with TCO 3.2, stopped-flow UV-Vis, pseudo first-order conditions; assay type: physicochemical; settings: 25% MeCN/PBS at 20° C.; mean ± SD (n = 5)
Description: (§1) The second-order rate constant of the IEDDA reaction between model TCO 3.2 and activators 2.7 or 2.8 in MeCN at 20° C. was determined (n=1) by UV-Vis spectrometry under second-order conditions. A cuvette was filled with a solution of activator (3 mL 0.083 mM in MeCN), and equilibrated at 20° C. Next, a solution of TCO 3.2 (10.0 μL, 25 mM in DMSO) was added. The absorption at 540 nm was measured every second in a time course experiment. From the decay of this absorption, the conversion x was calculated. The second-order rate constant k2 was determined from the slope of the curve of a plot of 1/c-1/c0 versus time. The second-order rate constant of the IEDDA reaction between model TCO 3.2 and activators 2.7, 2.8, 2.14, 2.16, or 2.17 in 25% MeCN/PBS at 20° C. was determined (n=5) by stopped-flow UV-Vis spectrometry under pseudo first-order conditions. Tetrazine solutions (0.25 mM in 25% MeCN/PBS) and TCO 3.2 (3.45 mM in 25% MeCN/PBS) were mixed in a volume ratio of 1:1, resulting in a concentration of 0.125 mM and 1.73 mM, respectively. The absorption at 520 nm was measured every 50 ms, and from the decay of this absorption, the pseudo first-order rate constant k1′ was determined by a nonlinear Simplex regression analysis of the data points using BioKine software. The second-order rate constant k2 was calculated: k2=k1′/c,TCO. As expected for a cycloaddition reaction, the reactivity in PBS is much higher than in MeCN, and importantly the tetrazines of the invention are at least 1 order of magnitude more reactive than the known and high-releasing 3,6-bismethyl-tetrazine (2.17), while giving similar release yields (see Example 7).

LS174T xenografts [5] = test: Therapy study in mice with LS174T xenografts; assay type: in vivo
Description: Groups of 10 female nude Balb/C mice were s.c. inoculated ca. 1×10^6 LS174T cells in the hindlimb and the therapy study started when the tumors became palpable (5-11 days after tumor cell inoculation). One group was administered four cycles (one cycle every 4 days) of tc-ADC (ca. 4 mg/kg) followed by activator 2.16 (ca. 33.5 μmol/kg) 48 later. Control groups received four cycles of ADC alone, activator alone, or vehicle. Tumor sizes and body weights were measured 2-3 times per week. […] On the contrary, all control mice were euthanized within 3 weeks from the beginning of the treatment due to large tumor size (>1.5 gr) or poor health conditions with a 15.5-17.5 days median survival. Overall, the repeated treatments were tolerated well by the mice, with no overt signs of hematological toxicity that could be attributed to the use of ADC and activator, either in combination or alone.

LS174T xenografts [6] = test: MMAE measurement in tumors; assay type: in vivo, mice
Description: Female nude Balb/C mice were subcutaneously inoculated ca. 1×10^6 LS174T cells in the hind limb. Biodistribution studies started when the tumors reached 0.1-0.2 cm^3 size. Experiments were carried out to evaluate the reactivity between the TCO Trigger on tumor-bound ADC and activators 2.7, 2.8, 2.14 and 2.16 in LS174T xenografts, as previously performed for other activators [Rossin et al Nature Communications 2018, 9, 1484]. The activators were administered at a 20- to 100-lower dose than that used in previous activation and therapy studies (ca. 0.335 mmol/kg). […] Groups of tumor bearing mice (n=4) were injected with ^125I-labeled ADC (2 mg/kg) followed 48 h later by the activators (dose 1×: ca. 3.3 μmol/kg; dose 5×: ca. 16.7 μmol/kg) and, after 1 h, by [^111In]In-2.20 (ca. 0.33 μmol/kg). One group was injected with the same amount of ^125I-labeled ADC followed only by ^111In-2.20 49 h later. One group was injected only with ^111In-2.20 (non-specific probe binding). All mice were euthanized 23 h post-probe injection and the ^125I and ^111In uptakes in tumors were measured by γ-counting.
The concentration of MMAE released in tumors was measured as previously reported [Rossin et al Nature Communications 2018, 9, 1484]. […] For this reason, activator 2.16 was selected for a therapy study in combination with the click-cleavable ADC. At the doses of tc-ADC (4 mg/kg) and 2.16 (dose 10×; 33.5 μmol/kg) used for therapy study, a high level of 339±45 nM free MMAE was detected in tumors.

[7] = Second-order rate constant of the IEDDA reaction with TCO 3.2, UV-Vis under second-order conditions in MeCN; assay type: physicochemical; settings: MeCN at 20° C.; n = 1
Description: as §1, with “As expected for a cycloaddition reaction, the reactivity in PBS is much higher than in MeCN, and importantly the tetrazines of the invention are at least 1 order of magnitude more reactive than the known and high-releasing 3,6-bismethyl-tetrazine (2.17), while giving similar release yields (see Example 7).” left out

[8] = 2 min after reaction with activator

CC(=O)Nc1cccnc1-c1nnc(-c2ncccc2NC(C)=O)nn1 [2.2, N,N′-(2,2′-(1,2,4,5-Tetrazine-3,6-diyl)bis(pyridine-3,2-diyl))diacetamide]
Construct release % ([1]; TCO 3.11, doxorubicin, 18 h, 37° C.): 18 h: 74%
Construct release % ([1]; TCO 3.11, doxorubicin, 42 h, 37° C.): 42 h: 81%
Construct release % ([1]; TCO 3.11, released construct doxorubicin, 5 min): 5 min: 4%
Construct release % ([1]; TCO 3.23, released construct dimethylamine, 5 min): 5 min: 100%
Construct release % ([1]; TCO 3.32, released construct dimethylamine, 5 min): 5 min: 98%
MMAE release from ADC AVP0458-TCO-MMAE, Release (%) (ADC AVP0458-TCO-MMAE; 24 h, mean ± SD (n = 3)): 79.3 ± 0.4%

Nc1cnccc1-c1nnc(-c2ccncc2N)nn1 [2.3, 4,4′-(1,2,4,5-Tetrazine-3,6-diyl)bis(pyridin-3-amine)]
MMAE release from ADC AVP0458-TCO-MMAE, Release (%) (ADC AVP0458-TCO-MMAE; 24 h, mean ± SD (n = 3)): 88.5 ± 0.1%

Cc1nnc(C)nn1 [2.17, 3,6-bismethyl-tetrazine, reference compound]
viability at 72 h, 0.01 μM [2]: 90.2 ± 4.5%
viability at 72 h, 0.1 μM [2]: 87.9 ± 6.4%
viability at 72 h, 1 μM [2]: 85.7 ± 7.4%

CC(=O)Nc1cnccc1-c1nnc(-c2ccncc2NC(C)=O)nn1 [2.4, N,N′-(4,4′-(1,2,4,5-Tetrazine-3,6-diyl)bis(pyridine-4,3-diyl))diacetamide]
MMAE release from ADC AVP0458-TCO-MMAE, Release (%) (ADC AVP0458-TCO-MMAE; 24 h, mean ± SD (n = 3)): 96.0 ± 0.3%

Nc1cccnc1-c1nnc(-c2ncccc2N)nn1 [2.1, 2,2′-(1,2,4,5-Tetrazine-3,6-diyl)bis(pyridin-3-amine)]
MMAE release from ADC AVP0458-TCO-MMAE, Release (%) (ADC AVP0458-TCO-MMAE; 24 h, mean ± SD (n = 3)): 32.1 ± 0.7^b %

c1cc(-c2nnc(-c3ccncc3)nn2)ccn1 [2.19, 3,6-bis(4-pyridinyl)-tetrazine, reference compound]
viability at 72 h, 0.01 μM [2]: 87 ± 2.6%
viability at 72 h, 0.1 μM [2]: 88.7 ± 2.5%
viability at 72 h, 1 μM [2]: 91.3 ± 3%

O=C(CCCC(=O)Nc1cnccc1-c1nnc(-c2ccncc2NC(=O)CCCC(=O)NCCOCCOCCOCCOCCOCCOCCOCCOCCOCCO)nn1)NCCOCCOCCOCCOCCOCCOCCOCCOCCOCCO [2.16, N^1,N^1′-(4,4′-(1,2,4,5-Tetrazine-3,6-diyl)bis(pyridine-4,3-diyl))bis(N^5-(29-hydroxy-3,6,9,12,15,18,21,24,27-nonaoxanonacosyl)glutaramide)]
half-life at 16.6 µM [3]: 4.2 ± 0.1 h
Calculated k2 values for the reaction between tetrazine activators and TCO 3.2 in PBS [4]: 519 ± 12 M⁻¹ s⁻¹
time for which growth of LS174T tumors was completely inhibited (LS174T xenografts [5]; four cycles of tc-ADC (ca. 4 mg/kg) followed by activator 2.16 (ca. 33.5 μmol/kg) 48 later): over 3 weeks
median overall survival (LS174T xenografts [5]; four cycles, one cycle every 4 days, treated group: tc-ADC ca. 4 mg/kg + 2.16 ca. 33.5 μmol/kg, controls: ADC alone, activator alone, or vehicle): 42 days
MMAE release from ADC AVP0458-TCO-MMAE, Release (%) (ADC AVP0458-TCO-MMAE; [8]): 1.9%
MMAE release from ADC AVP0458-TCO-MMAE, Release (%) (ADC AVP0458-TCO-MMAE; 10 min): 19.4%
MMAE release from ADC AVP0458-TCO-MMAE, Release (%) (ADC AVP0458-TCO-MMAE; 1 h): 70.7%
MMAE release from ADC AVP0458-TCO-MMAE, Release (%) (ADC AVP0458-TCO-MMAE; 5 h): 82.8%
MMAE release from ADC AVP0458-TCO-MMAE, Release (%) (ADC AVP0458-TCO-MMAE; 24 h, mean ± SD (n = 3)): 95.6 ± 0.6%
MMAE release level, in words (ADC AVP0458-TCO-MMAE): as high as that obtained with the less reactive 2.17
viability at 72 h, 0.01 μM [2]: 105 ± 7.4%
viability at 72 h, 0.1 μM [2]: 96.9 ± 3%
viability at 72 h, 1 μM [2]: 93.9 ± 2.8%
MMAE release in tumors, comparison of activators (LS174T xenografts [6]; 5× dose of activator): significantly higher release
free MMAE in tumors, comparison of activators (LS174T xenografts [6]; 24 h after administration of activator at dose 1×): No difference

Oc1cnccc1-c1nnc(-c2ccncc2O)nn1 [2.8, 4,4′-(1,2,4,5-Tetrazine-3,6-diyl)bis(pyridin-3-ol)]
half-life at 16.6 µM [3]: 6.5 ± 0.6 h
Calculated k2 values for the reaction between tetrazine activators and TCO 3.2 in PBS [4]: 270 ± 11 M⁻¹ s⁻¹
MMAE release from ADC AVP0458-TCO-MMAE, Release (%) (ADC AVP0458-TCO-MMAE; [8]): 48.7%
MMAE release from ADC AVP0458-TCO-MMAE, Release (%) (ADC AVP0458-TCO-MMAE; 10 min): 83.4%
MMAE release from ADC AVP0458-TCO-MMAE, Release (%) (ADC AVP0458-TCO-MMAE; 1 h): 92.7%
MMAE release from ADC AVP0458-TCO-MMAE, Release (%) (ADC AVP0458-TCO-MMAE; 5 h): 93.6%
MMAE release from ADC AVP0458-TCO-MMAE, Release (%) (ADC AVP0458-TCO-MMAE; 24 h, mean ± SD (n = 3)): 94.3 ± 1.3%
MMAE release level, in words (ADC AVP0458-TCO-MMAE): as high as that obtained with the less reactive 2.17
MMAE release speed, in words (ADC AVP0458-TCO-MMAE; compared with 2.17): faster
viability at 72 h, 0.01 μM [2]: 96.9 ± 3.6%
viability at 72 h, 0.1 μM [2]: 98.4 ± 3.6%
viability at 72 h, 1 μM [2]: 93.9 ± 5.2%
Calculated k2 values for the reaction between tetrazine activators and TCO 3.2 in MeCN [7]: 10 M⁻¹ s⁻¹

c1ccc(-c2nnc(-c3ccccn3)nn2)nc1 [2.18, 3,6-bis(2-pyridinyl)-tetrazine, reference compound]
viability at 72 h, 0.01 μM [2]: 101 ± 3%
viability at 72 h, 0.1 μM [2]: 101 ± 2.8%
viability at 72 h, 1 μM [2]: 102 ± 3.6%
